The target in one test is PI3Kalpha (Homo sapiens (Human), UniProt P42336). The experiment in a line: Inhibition of PI3Kalpha-induced PIP-2 phosphorylation (filter-binding assay). In kind it is biochemical. The note with it: 33P-ATP, p85alpha/His-p110alpha, read-out: IC50 PI3Kα. An outline of the steps: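 Radiometric filter-binding assay: PI3Kα (25 ng/well) preincubated 20 min at room temperature with compound and PIP2-containing lipid vesicles plus phosphotyrosine PDGFRβ peptide. Reaction started with cold ATP (1 μM final) and [33P]-ATP and run 120 min at room temperature; filter-captured radioactivity counted, IC50 from duplicate dilution series.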

The next test deals with H460 cells. The test can be described thus: alamarBlue H460 cell assay (antiproliferative/cytotoxicity). In kind it is cell-based. The note with it: NCI-H460; H460 human lung carcinoma cells. An outline of the steps: (§1)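 After overnight attachment at 37 °C, cells receive a ten-point, 1:3 dilution series starting at 10 μM final, in duplicate, with untreated medium/DMSO controls. Following 5-6 days, alamarBlue is incubated 8 h and emission at 590 nm recorded.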

For the next test, the system named is MB453 cells. The experiment in a line: alamarBlue MB453 cell assay (antiproliferative/cytotoxicity). In kind it is cell-based. As to conditions: Homo sapiens; MDA MB 453 breast cancer cell line. The method, boiled down:
as §1

The subject of the next test is U87 cells. The experiment in a line: U87 cell assay (antiproliferative/cytotoxicity). The format is cell-based. The note with it: U-87MG human glioblastoma cells. An outline of the steps: as §1
A further test has as its system MCF7 cells. The test can be described thus: alamarBlue MCF7 cell assay (antiproliferative/cytotoxicity). As to conditions: MCF7 human breast cancer cell line. The format is cell-based. An outline of the steps: as §1
In a further test the test system is BT474 cells. The test can be described thus: alamarBlue BT474 cell assay (antiproliferative/cytotoxicity). As to conditions: BT-474 human breast cancer cell line. In kind it is cell-based. An outline of the steps: as §1

SMILES strings stand for the structures. pEC50, pIC50: −log10 of the molar value.

PI3Kalpha, sequence (P42336 whole entry): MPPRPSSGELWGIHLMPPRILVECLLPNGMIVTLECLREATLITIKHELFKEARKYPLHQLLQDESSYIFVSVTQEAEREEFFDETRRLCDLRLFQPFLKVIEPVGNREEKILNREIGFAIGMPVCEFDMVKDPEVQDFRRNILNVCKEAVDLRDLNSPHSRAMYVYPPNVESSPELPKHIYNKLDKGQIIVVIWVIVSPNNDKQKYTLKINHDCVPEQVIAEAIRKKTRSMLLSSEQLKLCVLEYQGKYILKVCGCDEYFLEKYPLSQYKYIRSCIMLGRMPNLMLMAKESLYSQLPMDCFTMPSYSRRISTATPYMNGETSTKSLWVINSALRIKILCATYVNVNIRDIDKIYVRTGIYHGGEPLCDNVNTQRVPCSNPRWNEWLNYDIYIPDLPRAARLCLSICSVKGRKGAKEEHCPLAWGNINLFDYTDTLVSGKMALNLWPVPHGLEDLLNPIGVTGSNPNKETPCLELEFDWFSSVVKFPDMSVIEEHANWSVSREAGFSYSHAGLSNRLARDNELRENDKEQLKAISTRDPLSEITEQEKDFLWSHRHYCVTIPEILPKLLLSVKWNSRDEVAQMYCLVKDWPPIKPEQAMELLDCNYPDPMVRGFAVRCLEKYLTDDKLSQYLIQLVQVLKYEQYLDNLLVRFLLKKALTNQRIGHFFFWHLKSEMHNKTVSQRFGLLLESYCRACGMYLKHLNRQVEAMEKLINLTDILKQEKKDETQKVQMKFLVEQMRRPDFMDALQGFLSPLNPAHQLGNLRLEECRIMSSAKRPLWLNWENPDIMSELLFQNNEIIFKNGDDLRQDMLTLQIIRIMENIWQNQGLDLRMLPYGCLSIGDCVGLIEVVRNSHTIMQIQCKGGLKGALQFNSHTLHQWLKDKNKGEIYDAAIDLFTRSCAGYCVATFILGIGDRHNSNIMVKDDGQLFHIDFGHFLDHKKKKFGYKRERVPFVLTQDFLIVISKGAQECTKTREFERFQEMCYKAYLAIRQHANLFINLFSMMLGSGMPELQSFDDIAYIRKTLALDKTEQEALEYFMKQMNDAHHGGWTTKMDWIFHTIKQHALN

As for `CC(=O)N1CCCN(c2ncnc(C)c2C#Cc2cnc(C)c(NS(=O)(=O)c3ccccc3)c2)CC1` [Example I-62, N-{5-[4-(4-Acetyl-[1,4]diazepan-1-yl)-6-methyl-pyrimidin-5-ylethynyl]-2-methyl-pyridin-3-yl}-benzenesulfonamide], the negative logarithm of the IC50 (pIC50) on PI3Kalpha was 8.52. Moreover, the negative logarithm of the EC50 (pEC50) is 5.76 in the test on H460 cells; 6.01 in the test on MB453 cells; 5.89 in the test with U87 cells; 6.15 in the test with MCF7 cells; 5.39 in the test on BT474 cells.
Turning to `Cc1ncc(C#Cc2c(C)ncnc2N2CCOCC2)cc1NS(=O)(=O)c1ccco1` [Example I-49, Furan-2-sulfonic acid [2-methyl-5-(4-methyl-6-morpholin-4-yl-pyrimidin-5-ylethynyl)-pyridin-3-yl]-amide], the pIC50 at PI3Kalpha was 8.70. Also, the pEC50 is 6.45 with H460 cells; 6.41 in the test with MB453 cells; 6.29 in the test with U87 cells; 7.31 in the test on MCF7 cells; 6.35 in the test with BT474 cells.
As for `Cc1ncc(C#Cc2c(C)ncnc2N2CCOCC2)cc1NS(=O)(=O)c1cccc(F)c1` [Example I-6, 3-Fluoro-N-[2-methyl-5-(4-methyl-6-morpholin-4-yl-pyrimidin-5-ylethynyl)-pyridin-3-yl]-benzenesulfonamide], the pIC50 at PI3Kalpha was 9.00. Also, the pEC50 in the test with H460 cells was 6.89; with MB453 cells, 6.59; with U87 cells it was 6.43; in the test with MCF7 cells, 7.12; in the test with BT474 cells it was 6.71.
`COCCN1CCN(c2ncnc(C)c2C#Cc2cnc(C)c(NS(=O)(=O)c3ccccc3)c2)CC1` [Example I-57, N-(5-{4-[4-(2-Methoxy-ethyl)-piperazin-1-yl]-6-methyl-pyrimidin-5-ylethynyl}-2-methyl-pyridin-3-yl)-benzenesulfonamide]: the negative-log IC50 (pIC50) on PI3Kalpha was 9.08. Moreover, the pEC50 in the test with H460 cells was 7.09; with MB453 cells, 6.35; in the test with U87 cells, 6.47; in the test on MCF7 cells, 8.70; in the test with BT474 cells it was 5.89.
`COCCS(=O)(=O)Nc1cc(C#Cc2c(C)ncnc2N2CCOCC2)cnc1C` [Example I-12, 2-Methoxy-ethanesulfonic acid [2-methyl-5-(4-methyl-6-morpholin-4-yl-pyrimidin-5-ylethynyl)-pyridin-3-yl]-amide]: at PI3Kalpha, the negative-log IC50 (pIC50) was 8.40. Also, the pEC50 was 6.31 in the test with H460 cells; 6.08 with MB453 cells; 5.89 with U87 cells; 6.33 in the test with MCF7 cells; 6.16 in the test on BT474 cells.
For `Cc1ncc(C#Cc2c(C)ncnc2N2CCOCC2)cc1NS(=O)(=O)c1ccccc1F` [Example I-2, 2-Fluoro-N-[2-methyl-5-(4-methyl-6-morpholin-4-yl-pyrimidin-5-ylethynyl)-pyridin-3-yl]-benzenesulfonamide], the negative logarithm of the IC50 (pIC50) at PI3Kalpha is 9.19. Moreover, the negative logarithm of the EC50 (pEC50) with H460 cells is 6.63; in the test with MB453 cells it was 6.77; with U87 cells, 6.47; in the test with MCF7 cells, 7.37; with BT474 cells, 6.83.
Regarding `Cc1ncc(C#Cc2c(C)ncnc2N2CCOCC2)cc1NS(=O)(=O)N1CCCC1` [Example I-64, Pyrrolidine-1-sulfonic acid [2-methyl-5-(4-methyl-6-morpholin-4-yl-pyrimidin-5-ylethynyl)-pyridin-3-yl]-amide], at PI3Kalpha, the pIC50 is 8.70. The negative logarithm of the EC50 (pEC50) was 7.15 with H460 cells; 6.23 with MB453 cells; 6.11 in the test with U87 cells; 7.23 in the test with MCF7 cells; 5.23 with BT474 cells.
On to `COc1ncc(C#Cc2c(C)ncnc2N2CCOCC2)cc1NS(=O)(=O)c1ccc(F)cc1F` [Example I-29, 2,4-Difluoro-N-[2-methoxy-5-(4-methyl-6-morpholin-4-yl-pyrimidin-5-ylethynyl)-pyridin-3-yl]-benzenesulfonamide], for which, at PI3Kalpha, the pIC50 is 9.36. In addition, the negative-log EC50 (pEC50) with H460 cells was 7.96; in the test with MB453 cells, 7.55; with U87 cells, 7.08; in the test with MCF7 cells, 8.52; with BT474 cells it was 8.00.
For the molecule `Cc1ncc(C#Cc2c(C)ncnc2N2CCOCC2)cc1NS(C)(=O)=O` [Example I-37, N-[2-Methyl-5-(4-methyl-6-morpholin-4-yl-pyrimidin-5-ylethynyl)-pyridin-3-yl]-methanesulfonamide], the pIC50 on PI3Kalpha is 9.00. The pEC50 in the test with H460 cells was 6.04; with MB453 cells, 6.50; with U87 cells, 6.02; in the test with MCF7 cells it was 6.87; in the test on BT474 cells, 6.38.
For `Cc1cc(S(=O)(=O)Nc2cc(C#Cc3c(C)ncnc3N3CCOCC3)cnc2C)c(C)s1` [Example I-48, 2,5-Dimethyl-thiophene-3-sulfonic acid [2-methyl-5-(4-methyl-6-morpholin-4-yl-pyrimidin-5-ylethynyl)-pyridin-3-yl]-amide], the negative-log IC50 (pIC50) on PI3Kalpha is 9.26. Moreover, the negative-log EC50 (pEC50) in the test on H460 cells was 7.00; in the test on MB453 cells, 6.27; in the test on U87 cells it was 6.47; in the test with MCF7 cells, 7.85; with BT474 cells, 6.12.
As for `CCc1ncnc(N2CCN(C)CC2)c1C#Cc1cnc(C)c(NS(=O)(=O)c2ccc(F)cc2)c1` [Example I-65, N-{5-[4-Ethyl-6-(4-methyl-piperazin-1-yl)-pyrimidin-5-ylethynyl]-2-methyl-pyridin-3-yl}-4-fluoro-benzenesulfonamide], the negative logarithm of the IC50 (pIC50) at PI3Kalpha was 9.05. Also, the pEC50 in the test on H460 cells is 6.77; with MB453 cells, 6.64; in the test with U87 cells, 6.28; with MCF7 cells it was 7.55; with BT474 cells it was 6.55.
Take `Cc1ncc(C#Cc2c(C)ncnc2N2CCOCC2)cc1NS(=O)(=O)c1cccnc1` [Example I-54, Pyridine-3-sulfonic acid [2-methyl-5-(4-methyl-6-morpholin-4-yl-pyrimidin-5-ylethynyl)-pyridin-3-yl]-amide]: the pIC50 on PI3Kalpha is 9.00. In addition, the negative-log EC50 (pEC50) with H460 cells is 6.26; in the test with MB453 cells, 6.56; in the test on U87 cells, 6.24; in the test on MCF7 cells it was 7.36; in the test on BT474 cells it was 6.02.
For `Cc1ncc(C#Cc2c(C)ncnc2N2CCOCC2)cc1NS(=O)(=O)c1cnoc1C` [Example I-47, 5-Methyl-isoxazole-4-sulfonic acid [2-methyl-5-(4-methyl-6-morpholin-4-yl-pyrimidin-5-ylethynyl)-pyridin-3-yl]-amide], on PI3Kalpha, the pIC50 was 7.68. Further, the negative logarithm of the EC50 (pEC50) in the test on H460 cells was 4.60; in the test with MB453 cells it was 4.60; in the test on U87 cells it was 4.60; in the test on MCF7 cells, 5.00; with BT474 cells, 5.00.
As for `Cc1ncnc(N2CCOCC2)c1C#Cc1cncc(NS(=O)(=O)c2ccccc2)c1` [Example I-19, N-[5-(4-Methyl-6-morpholin-4-yl-pyrimidin-5-ylethynyl)-pyridin-3-yl]-benzenesulfonamide], on PI3Kalpha, the pIC50 is 9.34. Besides, the pEC50 in the test with H460 cells is 6.50; with MB453 cells, 6.41; with U87 cells, 6.15; in the test on MCF7 cells, 7.25; with BT474 cells it was 6.43.
As for `CCc1ncnc(N2CCN(C(C)=O)CC2)c1C#Cc1cnc(C)c(NS(=O)(=O)c2ccc(F)cc2)c1` [Example I-68, N-{5-[4-(4-Acetyl-piperazin-1-yl)-6-ethyl-pyrimidin-5-ylethynyl]-2-methyl-pyridin-3-yl}-4-fluoro-benzenesulfonamide], on PI3Kalpha, the negative logarithm of the IC50 (pIC50) was 9.33. Moreover, the negative-log EC50 (pEC50) in the test with H460 cells is 6.27; in the test with MB453 cells, 6.94; in the test with U87 cells, 6.26; in the test with MCF7 cells it was 7.44; in the test with BT474 cells, 6.93.
As to `Cc1ncc(C#Cc2c(C)ncnc2N2CCOCC2)cc1NS(=O)(=O)c1c(F)cccc1F` [Example I-7, 2,6-Difluoro-N-[2-methyl-5-(4-methyl-6-morpholin-4-yl-pyrimidin-5-ylethynyl)-pyridin-3-yl]-benzenesulfonamide], on PI3Kalpha, the pIC50 is 9.10. Moreover, the negative-log EC50 (pEC50) with H460 cells was 6.97; in the test on MB453 cells, 6.84; in the test on U87 cells it was 6.65; in the test with MCF7 cells, 7.42; with BT474 cells, 7.09.
For the molecule `CCc1ncnc(N(C)C)c1C#Cc1cnc(C)c(NS(=O)(=O)c2ccc(F)cc2)c1` [Example I-27, N-[5-(4-Dimethylamino-6-ethyl-pyrimidin-5-ylethynyl)-2-methyl-pyridin-3-yl]-4-fluoro-benzenesulfonamide], at PI3Kalpha, the negative-log IC50 (pIC50) is 9.00. Moreover, the pEC50 is 6.10 in the test on H460 cells; 5.91 in the test on MB453 cells; 5.79 with U87 cells; 5.00 in the test on MCF7 cells; 5.00 in the test with BT474 cells.
Regarding `Cc1ncc(C#Cc2c(C)ncnc2N2CCOCC2)cc1NS(=O)(=O)c1ccccc1Cl` [Example I-5, 2-Chloro-N-[2-methyl-5-(4-methyl-6-morpholin-4-yl-pyrimidin-5-ylethynyl)-pyridin-3-yl]-benzenesulfonamide], the pIC50 on PI3Kalpha is 9.00. Besides, the negative-log EC50 (pEC50) in the test on H460 cells was 7.19; with MB453 cells it was 6.69; in the test on U87 cells, 6.57; in the test on MCF7 cells it was 7.21; in the test with BT474 cells, 6.82.
Take `Cc1ncc(C#Cc2c(C)ncnc2N2CCOCC2)cc1NS(=O)(=O)C1CCCCC1` [Example I-39, Cyclohexanesulfonic acid [2-methyl-5-(4-methyl-6-morpholin-4-yl-pyrimidin-5-ylethynyl)-pyridin-3-yl]-amide]: the pIC50 at PI3Kalpha is 8.30. Moreover, the pEC50 is 5.73 in the test with H460 cells; 5.75 in the test on MB453 cells; 5.54 with U87 cells; 5.89 in the test with MCF7 cells; 5.56 with BT474 cells.
